Common to all, as to assay type: in vivo
In assay [1] the test system is ICR mice. Kind of assay: Hole-board test. The conditions noted are these: 300 s. Here is the method:
(§1) ICR mice of male sex, weighing 15.6-17.8 g were used, provided by Experimental Animal Centre of HKUST, housed in groups, given food and water ad libitum and maintained on a 12 hour light: 12 hour dark cycle. All of the experimental groups had 12 animals per group.
(§2) For each experimental animal, administered orally 0.2 ml (pH 7.2) of respective solvent at concentrations as stated above for each group (or double-distilled water for normal control group) one hour before testing.
The hole-board apparatus is a 0.5 cm thick walled wood arena of 60×60×30 cm, with four 5 cm equidistant 4 cm diameter holes spaced on the floor. The mice are placed on the centre of the arena and the number of head-dip on the hole and the number of rearing are counted during a 300 second test period (File S. E. et al., “The effects of triazolobenzo-diazepines in two animal tests of anxiety and in the holeboard.”, Br J Pharmacol. 1985 November; 86(3): 729-35; PMID: 2866006). After each trial, the floor of the apparatus was wiped and dried thoroughly with tissue to remove traces of the previous path.

Assay [2] deals with ICR mice. Briefly: Elevated plus-maze test. The following applies: mice. Here is the method:
as §1, §2
The elevated plus-maze is made of 0.5 cm thick wood as a horizontal cross consisting of two open arms (25×5 cm) and two opposite arms (25×5 cm) enclosed by 10 cm high walls. The arms extend from a central platform having dimensions of 5×5 cm. The plus-maze is elevated to a height of 40 cm from the floor. The maze is put inside a box with dimensions of 30×30×50 cm. The mice are placed on the central platform of the maze facing a closed arm. The number of arm entries and the time spent in the open and closed arm are counted for 300 seconds (Pellow S. et al., “Anxiolytic and anxiogenic drug effects on exploratory activity in an elevated plus-maze: a novel test of anxiety in the rat”, Pharmacol Biochem Behav. 1986 March; 24(3): 525-9; PMID: 2871560). Arm entry was defined as one half body entered into the arm.

Assay [3] has as its system ICR mice. Kind of assay: Horizontal-wire test. The following applies: Table 2, mice, 60 s. Here is the method:
as §1, §2
Mice are lifted by the tail and allowed to grasp a horizontally strung wire (1 mm diameter, 20 cm long and placed 20 cm above the table) with their forepaws and released (Bonetti E. P. et al., Psychopharmacology (Berl). 1982; 78(1): 8-18; PMID: 6292984). For each experimental animal, the number of falling onto the table in 60 seconds was determined.
There is no significant difference between same dosage l-THP and dl-THP groups.

Molecules are shown by their SMILES.

Consider `CN1C(=O)CN=C(c2ccccc2)c2cc(Cl)ccc21` [DZ, Diazepam, reference compound], for which, in the assay on ICR mice [1] (oral 1.0 mg/kg), the “Rearing No.” value amounted to 26.38 ± 8.51; the “Total No. (head-dip and rearing)” value was 42.00 ± 7.11. In the assay on ICR mice [2] (oral 1.0 mg/kg, 300 s), the “Closed arm entry %” value is 44.58 ± 4.10%, the “Closed arm entry No.” value was 16.75 ± 3.26 and the “Total no. of arm entries” value is 38.25 ± 7.06. Also, in the assay on ICR mice [2] (oral 1.0 mg/kg, 300 s test), the “Closed arm Time spent” value was 159.29 ± 14.18 and the “Closed arm time spent %” value came out at 54.81 ± 4.53 %. In the assay on ICR mice [2] (oral 1.0 mg/kg, 300 s test, 1 mg/kg), the “Open arm time spent %” value is reported as 45.19 ± 4.53 %. The “Open arm entry %” value with ICR mice [2] (oral 1.0 mg/kg, 300 s, 1 mg/kg) came out at 55.42 ± 4.10 %.
Consider `COc1cc2c(cc1OC)C1Cc3ccc(OC)c(OC)c3CN1CC2` (racemic) [dl-THP, 5,8,18,13a-tetrahydro-2,3,9,10-tetramethoxy-6H-dibenzo [a,q] quinolizine, reference compound], for which the Number of falling in the assay with ICR mice [3] (oral 0.5 mg/kg) is 0.30 ± 0.48; in the assay on ICR mice [3] (oral 1.0 mg/kg), 0.50 ± 0.67; with ICR mice [3] (oral 5.0 mg/kg), 0.40 ± 0.49; with ICR mice [3] (oral 10 mg/kg) it was 0.80 ± 0.64; in the assay with ICR mice [3] (oral 30 mg/kg) it was 21.60 ± 8.72. Also, the “Head-dip No.” value is reported as 13.42 ± 12.06 with ICR mice [1] (oral 0.1 mg/kg), 17.67 ± 11.14 in the assay with ICR mice [1] (oral 0.5 mg/kg), 13.20 ± 10.64 with ICR mice [1] (oral 1.0 mg/kg) and 11.08 ± 6.34 with ICR mice [1] (oral 5.0 mg/kg). Further, the “Rearing No.” value in the assay on ICR mice [1] (oral 0.1 mg/kg) amounted to 22.17 ± 12.76; with ICR mice [1] (oral 0.5 mg/kg) it was 26.50 ± 10.06; in the assay with ICR mice [1] (oral 1.0 mg/kg), 20.40 ± 15.74; in the assay with ICR mice [1] (oral 5.0 mg/kg) it was 26.39 ± 12.28. The “Total No. (head-dip and rearing)” value stood at 35.58 ± 16.47 with ICR mice [1] (oral 0.1 mg/kg), 44.17 ± 13.53 with ICR mice [1] (oral 0.5 mg/kg), 33.60 ± 20.37 in the assay with ICR mice [1] (oral 1.0 mg/kg) and 37.46 ± 15.95 in the assay with ICR mice [1] (oral 5.0 mg/kg). In addition, the “most medicinal dosage (time spent and percentage of open arm entry)” value in the assay on ICR mice [2] (oral) is 5 mg/kg. The “Open arm entry %” value is listed as 30.58 ± 5.83 % in the assay on ICR mice [2] (oral 0.1 mg/kg, 300 s); 43.13 ± 4.17% in the assay on ICR mice [2] (oral 0.5 mg/kg, 300 s); 51.17 ± 5.48 % in the assay with ICR mice [2] (oral 1.0 mg/kg, 300 s); 50.21 ± 4.04 % in the assay with ICR mice [2] (oral 5.0 mg/kg, 300 s). Moreover, the “Open arm entry No.” value with ICR mice [2] (oral 0.1 mg/kg, 300 s) stood at 8.77 ± 1.88; in the assay with ICR mice [2] (oral 0.5 mg/kg, 300 s) it was 13.15 ± 3.33; in the assay with ICR mice [2] (oral 1.0 mg/kg, 300 s), 16.00 ± 3.13; in the assay with ICR mice [2] (oral 5.0 mg/kg, 300 s), 15.23 ± 3.19. In addition, the “Total no. of arm entries” value is 28.92 ± 4.73 in the assay with ICR mice [2] (oral 0.1 mg/kg, 300 s); 30.25 ± 5.55 with ICR mice [2] (oral 0.5 mg/kg, 300 s); 31.20 ± 4.16 in the assay with ICR mice [2] (oral 1.0 mg/kg, 300 s); 30.15 ± 4.83 in the assay with ICR mice [2] (oral 5.0 mg/kg, 300 s). Further, the “Open arm Time spent” value in the assay on ICR mice [2] (oral 0.5 mg/kg, 300 s test) is 80.42 ± 15.23; in the assay on ICR mice [2] (oral 1.0 mg/kg, 300 s test) it was 88.40 ± 17.37; in the assay with ICR mice [2] (oral 5.0 mg/kg, 300 s test) it was 95.00 ± 23.56. Also, the “Open arm time spent %” value turned out to be 29.25 ± 5.10% in the assay with ICR mice [2] (oral 0.5 mg/kg, 300 s test); 29.95 ± 5.31% with ICR mice [2] (oral 1.0 mg/kg, 300 s test); 32.79 ± 8.60 % in the assay with ICR mice [2] (oral 5.0 mg/kg, 300 s test). For the same compound, the “hypnotic effect / inhibition of the nervous system” value with ICR mice [2] (oral 5 mg/kg) is reported as “does not induce a hypnotic effect or inhibit the nervous system”.
